A word on the IC50: it is the concentration that inhibits the measured activity by half. A lower IC50 goes with greater potency.

The target of this assay is Thyrotropin receptor (Homo sapiens, UniProt P16473). Type of assay: functional, cell-based, CHO.
Sequence of Thyrotropin receptor (P16473 whole entry): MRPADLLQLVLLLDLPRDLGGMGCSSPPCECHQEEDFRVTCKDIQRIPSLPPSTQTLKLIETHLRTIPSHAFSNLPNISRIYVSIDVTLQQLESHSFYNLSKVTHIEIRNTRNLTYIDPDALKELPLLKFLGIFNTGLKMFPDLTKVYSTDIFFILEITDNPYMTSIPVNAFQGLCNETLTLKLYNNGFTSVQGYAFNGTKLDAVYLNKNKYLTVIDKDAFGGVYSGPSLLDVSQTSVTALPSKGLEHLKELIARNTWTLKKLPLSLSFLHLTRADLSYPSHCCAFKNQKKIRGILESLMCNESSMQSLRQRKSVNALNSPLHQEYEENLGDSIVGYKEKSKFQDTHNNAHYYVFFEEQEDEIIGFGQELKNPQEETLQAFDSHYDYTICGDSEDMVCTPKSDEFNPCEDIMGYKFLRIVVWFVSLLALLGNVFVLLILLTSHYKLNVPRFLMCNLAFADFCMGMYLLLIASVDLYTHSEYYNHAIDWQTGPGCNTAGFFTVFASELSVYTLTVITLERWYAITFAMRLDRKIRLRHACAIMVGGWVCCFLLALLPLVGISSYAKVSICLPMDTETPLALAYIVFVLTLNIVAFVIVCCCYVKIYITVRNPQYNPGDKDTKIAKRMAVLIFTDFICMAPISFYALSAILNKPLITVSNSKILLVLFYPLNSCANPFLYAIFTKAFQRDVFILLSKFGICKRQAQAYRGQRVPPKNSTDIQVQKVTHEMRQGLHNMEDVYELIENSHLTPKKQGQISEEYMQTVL

In turn, `CC(=O)N1CCC(C)(c2ccccc2)c2cc(NC(=O)c3ccc(Br)s3)ccc21` (stereo unspecified) came in with an IC50 of less than 0.1 µM.
